In patent US8022178B2, “Modified self-assembling peptides” (Massachusetts Institute of Technology, priority 2006, dated 2011):

Legend:
[1] = system: MC3T3-E1 cells; assay: Three dimensional culturing of MC3T3-E1 in hydrogel (Calcein AM, confocal); type: cell-based, mouse; details: 14 days of culture; compared to RAD16-1; FIGS. 13A-13D
Procedure: Three dimensional culturing experiment. MC3T3-E1 cells were obtained and grown to be seeded using the same protocol as described in Example 1. Cells were centrifuged and re-suspended into sucrose solution (10%) at 4×10^6 cells/ml. FHR peptide was dissolved into water to provide a 1.0% w/t solution. 1% RAD16-I solution was obtained as RAD16-I (Puramatrix™, 3DM Inc./BD Bioscience). The pH of the FHR peptide solution was adjusted to pH 5.7 by NaOH solution (i.e., so that cells can be mixed near neutral pH). The cell suspension and the peptide solution (FHR/RAD16-I) were mixed in a ratio of 1:5. The mixed solution were placed in the inserts and the cell culture medium was added to the insert to form the hydrogel. The cells were maintained by the maintenance medium (as described herein).
Fluorescence observation of the cells. After 14 days of culture, the inserts were washed by PBS and then stained by Calcein AM solution (4 uM, Invitrogen). This solution stains the live cells by the green fluorescence when excited by 480 nm light.
The RAD16-1 and FHR hydrogels in the insert was observed by confocal microscope. […] The bright areas show the cells presence. […] The quantitative measurement of proliferation and differentiation effects by the FHR peptide hydrogel were also evaluated (FIGS. 14-16A/B). […]

[2] = system: Mouse preosteoblast cell line (MC3T3-E1); assay: Alkaline phosphatase (ALP) activity of MC3T3-E1 on hydrogels; type: cell-based; details: 1% FHR hydrogel; FIGS. 14-16A/B compared to FIGS. 3-4
Procedure: Mouse preosteoblast cell line (MC3T3-E1) was used to compare the proliferation and differentiation effects of the motifs with RAD16-1 and Collagen-I hydrogels as controls. The proliferation was measured by DNA contents and the differentiation effects were evaluated using Alkaline phosphatase (ALP) activity and secreted Osteocalcin. Alkaline phosphatase is known to be differentiation marker of osteoblast in earlier stage. Secreted Osteocalcin is known to be differentiation marker of osteoblast in later stage and its activity is correlated with the bone mineralization.
1% RAD16-I solution [self-assembling peptide solution] was obtained as RAD16-I (Puramatrix™, 3DM Inc./BD Bioscience). The functionalized peptides of Table 2 were dissolved in water at final concentration of 1% (v/w). The functionalized peptide solutions were then mixed with 1% RAD16-I solution at a ratio of 1:1 (Table 4). Each peptide solution was loaded in the Culture plate inserts (10 mm diameter, Millicell-CM, Millipore). […]
Cell proliferation was evaluated using DNA contents in the hydrogel using PicoGreen dsDNA Kits (Molecular Probes). ALP activity was quantitatively measured from cell lysis using Alkaline Phosphatase Fluorescence Assay Kit (Sigma). Osteocalcin was measured from cell culture medium using Mouse Osteocalcin EIA Kit (Biomedical Technologies Inc.).

[3] = system: bone defects of 4 mm diameter in rat skull; assay: Rat skull bone defect filled with hydrogel, bone formation evaluation; type: in vivo; details: grade 1 more than 80%, 2 more than 50%, 3 weak in X-ray
Procedure: The effects of the functionalized peptide were evaluated in vivo in rats. 6 weeks male rat sculls were used for this evaluation (two samples for each experiment).
The rats in this study underwent creation of two bone defects of 4 mm diameter, bilaterally in each skull. Some of the defects were left empty as controls.
The peptide solution was directly injected to the defects without cells. The peptide solution formed a hydrogel immediately after injection by the salt in the body fluid (e.g., blood, lymph fluid, and the like).
Bone Formation Evaluation: All animals from each group were euthanized 2 and 4 weeks later. The X-ray image of the skulls were taken. The skulls were collected, hemisected, and fixed in formalin. The defects were then trimmed, decalcified, embedded in paraffin, stained by HE staining method, and evaluated by a Veterinary pathologist, who characterized by histomorphometry the type of tissue contained within the defects. The degree of bone regeneration is graded as Complete recovery, 1 (more than 80%), 2 (more than 50%), or 3 (weak in X-ray).

[4] = system: neurons; details: neurons grown on surface (Holmes 2000); cited from earlier work
[5] = system: adipose derived stem cells (ADSC); assay: ADSC culture in functionalized peptide matrixes: cell migration; type: cell-based, human
Procedure: 3-dimensional adipose derived stem cells (ADSC) were cultured in the functionalized peptide matrixes (Table 24) and cell maintenance ability of functionalized self-assembling peptide matrixes was evaluated. ADSCs were suspended in 10% sucrose solution and mixed with peptide solution selected from Table 25. The cell suspended peptide solutions were transferred to the culture inserts (10 mm diameter, Millicell-CM, Millipore) and gels were immediately formed using cell culture medium. Cell numbers seeded in the well were 4×10^4 cells/well.
The peptide solutions shown in Table 25 were loaded in the culture inserts (10 mm diameter, Millicell-CM, Millipore) and gels were formed using cell culture medium (DMEM-F12+10% FBS, Gibco). ADSC were plated at 4×10^4 cells on the inserts and cultured up to 7 Days.
Although the cells were seeded on the surface of the matrix, the cells were migrated well into the matrix.

[6] = system: Liver progenitor cells; details: encapsulated liver progenitor cells (Semino 2003); cited from earlier work

| Substance | 3-Dimensional cell proliferation [1] | promotion of pre-osteoblast differentiation [2] | Average score (degree of bone regeneration) ([3]; four weeks) | Average score (degree of bone regeneration) ([3]; two weeks) | neurite outgrowth and synapse formation [4] | migration depth of cells ([5]; 7 days of culturing, FIG. 34) | portion of the cell migrated into the hydrogels ([5]; 7 days, compared to PRGmx) | hepatocyte marker expression [6] |
| --- | --- | --- | --- | --- | --- | --- | --- | --- |
| Ac(RADA)4GGFHRRIKA-CONH2 (Ac-RADARADARADARADAGGFHRRIKA-NH2) [FHR = 1% solution; FHR-2P = 2% solution] | superior | some function to promote differentiation | – | – | – | – | – | – |
| Ac(RADA)4-CONH2 | – | – | 1.0 | 3.0 | able to serve as a substrate for neurite outgrowth and formation of functionally active synapses | migrated less deeper than PRGmx | larger | expressed markers indicative of hepatocyte phenotype |
